# Data reported in patent publication US20070276032A1, “Use of 8-Prenylnaringenin for Hormone Replacement Therapy” (priority 2003, published 2007).
# Experiments:
# ovariectomized rats [1] = assay: Ex vivo BMD (pQCT) of proximal tibia, 2S(−) 8-PN in ovariectomized rats (Example 3); design: species or system Sprague-Dawley rats; conditions: OVX rats; for Total BMD, MEAN / Total BMD, MEDIAN / Trabecular BMD, MEAN / Trabecular BMD, MEDIAN: left proximal tibia ex vivo, s.c. 4 weeks
# Protocol: The aim of the study was to examine bone and uterine effects of a 4-week treatment with 2S(−) 8-Prenylnaringenin (8-PN) in 3-month-old ovariectomized rats. […] At the end of the study, uterine weight and ex vivo bone mineral density (BMD) of tibia were measured.
# (§1) A total of 30 female 13-14-week-old Sprague-Dawley rats were used in the study. The animals were randomized into 5 groups, with 6 rats/group. Group 1 was sham-operated (SHAM) and groups 2-5 were ovariectomized (OVX).
# Treatments with the vehicle or test substance started on the day following operation. […] The animals were sacrificed one day after the last dosing. At the end of the study, left tibiae were excised for ex vivo BMD measurement (pQCT) at proximal tibia and uteri were excised for the determination of absolute and relative weights. In addition, samples for the determination of 2S(−)8-Prenylnaringenin concentration were taken from all dosing solutions on the day when they were prepared and on the last day of use. The data of body weights, relative uterine weights and BMD were analyzed with one-way analysis of variance.
# Bone mineral density measurement was carried out by pQCT (XCT-960A, Stratec, Germany). The bone specimens were thawed before measurement. Six 1 mm-thick sections of the proximal tibia (2 mm below the epiphyseal growth plate) were scanned at 0.5 mm intervals using a voxel size of 0.148 mm. Total and trabecular BMD (mg/cm^3) were measured. After bone densitometry, the specimens were wrapped back to saline saturated gauzes and stored at −20° C.
# [2] = Body weight, 2S(−) 8-PN in ovariectomized rats (Example 3); assay type: in vivo, Sprague-Dawley rats; conditions: OVX rats, s.c. once a day, 7 times a week, 4 weeks
# Excerpt: as §1
# The mean body weight of the animals was 271 g (SD 9, SE 2) before operation. Treatments with the vehicle or test substance started on the day following operation. The animals in the SHAM group received the vehicle, 30% hydroxypropyl-β-cyclodextrin s.c., and in the OVX groups either the vehicle or 2S(−) 8-PN at nominal doses of 0.67 mg/kg/d, 1.77 mg/kg/d or 18 mg/kg/d s.c. Treatments continued for 4 weeks; the dosing frequency was seven times a week. The animals were sacrificed one day after the last dosing. At the end of the study, left tibiae were excised for ex vivo BMD measurement (pQCT) at proximal tibia and uteri were excised for the determination of absolute and relative weights. In addition, samples for the determination of 2S(−)8-Prenylnaringenin concentration were taken from all dosing solutions on the day when they were prepared and on the last day of use. The data of body weights, relative uterine weights and BMD were analyzed with one-way analysis of variance.
# ERE-Luc = assay: Estrogenic activity in the estrogen reporter mouse ERE-Luc model, luciferase activity in organs (Example 5); assay type: in vivo, mice
# Protocol: In order to avoid experimental noise male animals were used.
# Fourtyfive heterozygous male ERE-Luc mice of two months of age were fed with soy-free diet for two weeks before assigning them to each experimental group then all the mice were injected intraperitoneally (i.p.) with 250 μl of an oily solution containing the following compounds: • 1. Experimental group 1: vehicle • 2. Experimental group 2: 17β-estradiol at 1.5 μg/kg • 3. Experimental group 3: 2S(−)-8-PN at 30 mg/kg • 4. […] Experimental group 5: genistein at 30 mg/kg.
# The treatment was carried out in experimental groups of three mice each and repeated three times (therefore numbers reflect the average of […] determinations on a total of 9 animals).
# Six hours after the injection, mice were sacrificed by cervical dislocation and organs were dissected and frozen on dry ice. The following organs were analyzed for lucifererase activity by enzymatic assay: prostate, liver, bone, brain.
# Data represent means ±standard deviation of N=9 animals per group.
# Analysis of variance (ANOVA) for overall comparison was followed by Tukey test for paired comparisons. All statistical procedures were carried out with Systat and SAS (*P<0.05; **P<0.01).
# ovariectomized rats [3] = assay: Uterus histology, luminal epithelium cell height in ovariectomized rats (Example 3); assay type: in vivo, Sprague-Dawley rats; conditions: ovariectomized rat; at 1.77 mg/kg and 18 mg/kg
# Protocol: A post-study histological examination was performed. The formalin fixed uteri were embedded in paraffin, cut into 5 μm transverse sections and were stained with haematoxylin eosin. The sections were then evaluated quantitatively for luminal epithelium cell height.
# ovariectomized rats [4] = assay: Relative uterus weight, 8-PN racemic, 2S(−) 8-PN and estradiol hemihydrate in ovariectomized rats (Example 4); assay type: in vivo, Sprague-Dawley rats; conditions: OVX rats
# Protocol: The aim of the study was to directly compare the effects of Prenylnaringenin (racemate) and 2S(−) 8-Prenylnaringenin to the effects of estradiol hemihydrate on bone mineral density and uterine weight on 3-month-old ovariectomized rats using identical formulations. In addition, the effects of estradiolhemihydrate in two vehicles (oily, aqueous) were examined for influence of formulations. The substances were administered subcutaneously(s.c.) seven days a week beginning the day after ovariectomy. At the end of the study, uterine weight and bone mineral density (BMD) of tibia were measured.
# Forty-one female Sprague-Dawley rats, 12-14 weeks of age were randomized into six groups, 6-8 animals in each. Five groups were ovariectomized (OVX) and one group was sham-operated (SHAM). Treatments started on the day following operation and continued for 28 days. The animals were treated s.c. once a day seven times a week as follows. Group 1 (SHAM vehicle group) and group 2 (OVX vehicle group) were given the vehicle 30% hydroxypropyl-β-cyclodextrin (HP-β-CD). Groups 3 and 4 were administered 4 μg/kg/d of estradiol hemihydrate in vehicle benzyl benzoate/ricinus oil (B/R) and in vehicle HP-β-CD, respectively. Groups 5 and 6 were given 20 mg/kg/d of 2S(−)8-Prenylnaringenin and racemic 8-Prenylnaringenin, respectively, both in vehicle HP-β-CD. At the end of the study, left tibiae were excised for the ex vivo BMD […] were taken from all dosing solutions on the first and last day of use.
# Vehicle 1 (used in the groups 1 and 2): 30% hydroxypropyl-β-cyclodextrin and 0.3% NaCl (w/v), 5% ethanol (v/v) in Aqua sterilisata, pH 7.4.
# Vehicle 2 (used when preparing dosing solutions of the groups 4, 5 and 6): 30% hydroxypropyl-β-cyclodextrin and 0.3% NaCl (w/v) in Aqua sterilisata, pH 7.4.
# Vehicle 3 (used when preparing a dosing solution of the group 3): benzyl benzoate/ricinus oil (B/R) 1+4, v/v.
# [5] = ERE-Luc mice, at the dosages used
# [6] = s.c. 28 days, 20 mg/kg/d in HP-β-CD, calculated as percentage of body weight
smiles,measurement,setting,value
"CC(C)=CCc1c(O)cc(O)c2c1O[C@H](c1ccc(O)cc1)CC2=O [2S(−)8-PN, 2S(−) 8-Prenylnaringenin]",effect on OVX-induced decreases in BMD at the highest dose,"ovariectomized rats [1]; 18 mg/kg/d s.c., 4 weeks",completely inhibited OVX-induced effects
same,effect on OVX-induced decreases in total and trabecular BMD,"ovariectomized rats [1]; dose range 0.67-18 mg/kg/d s.c., 4 weeks",prevented the OVX-induced decreases in both total and trabecular BMD at the proximal tibial metaphysis dose dependently
same,"Total BMD, MEAN",ovariectomized rats [1]; 0.67 mg/kg/d,561.1 mg/mL
same,"Total BMD, MEDIAN",ovariectomized rats [1]; 0.67 mg/kg/d,569.2 mg/mL
same,"Trabecular BMD, MEAN",ovariectomized rats [1]; 0.67 mg/kg/d,319.1 mg/mL
same,"Trabecular BMD, MEDIAN",ovariectomized rats [1]; 0.67 mg/kg/d,318.7 mg/mL
same,"Total BMD, MEAN",ovariectomized rats [1]; 1.77 mg/kg/d,581.5 mg/mL
same,"Total BMD, MEDIAN",ovariectomized rats [1]; 1.77 mg/kg/d,568.1 mg/mL
same,"Trabecular BMD, MEAN",ovariectomized rats [1]; 1.77 mg/kg/d,330.9 mg/mL
same,"Trabecular BMD, MEDIAN",ovariectomized rats [1]; 1.77 mg/kg/d,329.4 mg/mL
same,"Total BMD, MEAN",ovariectomized rats [1]; 18 mg/kg/d,636.5 mg/mL
same,"Total BMD, MEDIAN",ovariectomized rats [1]; 18 mg/kg/d,635.4 mg/mL
same,"Trabecular BMD, MEAN",ovariectomized rats [1]; 18 mg/kg/d,411.8 mg/mL
same,"Trabecular BMD, MEDIAN",ovariectomized rats [1]; 18 mg/kg/d,396.6 mg/mL
same,Body weight at the end (bw4b),[2]; 0.67 mg/kg/d,323 (11) g
same,The change in Body weight (bw4b-bw0),[2]; 0.67 mg/kg/d,53 (7) g
same,Body weight at the end (bw4b),[2]; 1.77 mg/kg/d,305 (7) g
same,The change in Body weight (bw4b-bw0),[2]; 1.77 mg/kg/d,35 (5) g
same,Body weight at the end (bw4b),[2]; 18 mg/kg/d,304 (5) g
same,The change in Body weight (bw4b-bw0),[2]; 18 mg/kg/d,33 (4) g
same,agonist profile in bone and prostate compared with the other compounds,ERE-Luc; [5],much stronger agonist profile in bone and prostate when compared to the other compounds
same,estrogenic activity in liver compared with the other compounds,ERE-Luc; [5],almost identical to that of the other compounds
same,"Luciferase activity, Bone","ERE-Luc; male ERE-Luc mice, i.p. 30 mg/kg, six hours after the injection, controls 2.8",5.5 ** arbitrary units
same,"Luciferase activity, Brain","ERE-Luc; male ERE-Luc mice, i.p. 30 mg/kg, six hours after the injection, controls 6.5",8.0 arbitrary units
same,"Luciferase activity, Liver","ERE-Luc; male ERE-Luc mice, i.p. 30 mg/kg, six hours after the injection, controls 7.6",12.5 ** arbitrary units
same,luminal epithelial cell height,ovariectomized rats [3],weak stimulation of luminal epithelial cell height
same,effect on the uterus and body weight compared with estradiol in the same vehicle (HP-β-CD),"ovariectomized rats [4]; 20 mg/kg/d vs estradiol 4 μg/kg/d, same bone effective dose",much lower effect on the uterus and body weight than estradiol at the same bone effective dose
same,"Relative uterus weight, Mean",ovariectomized rats [4]; [6],0.067
same,"Relative uterus weight, Median",ovariectomized rats [4]; [6],0.067
